Assay results reported in patent US20230263792A1, “USE OF 2,3,5-SUBSTITUTED THIOPHENE COMPOUND FOR PREVENTING, ALLEVIATION, OR TREATING MASTOCYTOSIS” (PHAROS IBIO CO., LTD, priority 2020, published 2023).

Assays:
[1] = tested on: Ba/F3 cell line with a c-kit D816V mutation; test: Growth inhibition of c-kit D816V Ba/F3 cell line (Celltiter glo); format: cell-based; conditions: GI50 comparison, Table 1
Description: Specifically, 100 μl of a Ba/F3 cell line with a c-kit D816V mutation (FIG. 1) was added to each well of a 96-well plate at a concentration of 10,000 cells/100 μl. After 4 hours, 100 μl of the Ba/F3 cell line was treated with 0.5 μl of each of control compounds and PHI-101 (10-point 1:3 serial dilutions) to a final concentration of up to 50 μM, and cultured at 37° C. under 5% CO2 for 72 hours. As the control compounds, imatinib and sunitinib which are c-kit inhibitors were used. After culture, the cells were counted using a Celltiter glo assay kit (Promega), and the 50% growth inhibition values (GI50, μM) of the control compounds and PHI-101 were measured.

[2] = tested on: c-kit D816V mutant Ba/F3 cell line; test: Annexin V-PI FACS apoptosis analysis, c-kit D816V Ba/F3; format: cell-based; conditions: 0.1, 1 and 10 μM, 24 hours, FIG. 3
Description: Specifically, the c-kit D816V mutant Ba/F3 cell line was adjusted to a concentration of 1×10^6 cells/ml and treated with each of PHI-101 at concentrations of 0.1, 1 and 10 μM and the control compound sunitinib at concentrations of 1 and 10 μM for 24 hours. Thereafter, the medium was removed and the cells were washed once with 1 ml PBS. The PBS was removed by centrifugation at 1,000 rpm for 5 minutes. The cells were dissolved in 100 μl of PBS containing Ca^2+ and Mg^2+ and allowed to react with 5 μl of Annexin V for 20 minutes. After completion of the reaction, 400 μl of PBS containing Ca^2+ and Mg^2+ was added, and 5 μl of propidium iodide (PI) was added, and then the degree of apoptotic cell death was analyzed by FACS (fluorescence activated cell sorter) assay using a flow cytometer (FACS-C6, BD).

[3] = tested on: c-kit phosphorylation and downstream signaling (p-STAT5, p-AKT, p-ERK) in HMC-1.2 cell line; test: Western blot of c-kit phosphorylation and downstream signaling in HMC-1.2; format: cell-based; conditions: FIG. 6
Description: (§1) Specifically, the c-kit D816V mutant Ba/F3 cell line was dispensed at a concentration of 1×10^6 cells/ml, treated with each of the control compounds and PHI-101 at concentrations of 0.1, 1 and 10 μM, and then cultured for 2 hours. Next, lysates of the cells were obtained using lysis buffer (50 mM Tris-HCl pH 7.5, 1% NP40, 1 mM EDTA, 150 mM NaCl, 5 mM, Na3VO4 and 2.5 mM NaF, and a protease inhibitor cocktail). Equal amounts of the cell lysates were electrophoresed using 8% SDS-PAGE gel at 100 V for 1 hour and 30 minutes, and the separated protein was electrically transferred to nitrocellulose membranes. The membranes were blocked with 5% skim milk at room temperature for 30 minutes, and allowed to react with primary antibodies (diluted 1:5,000), including p-c-kit tyrosine 719 (Y719), p-STAT3 tyrosine 705 (Y705) and p-ERK1/2 threonine 202/tyrosine 204 (T202/Y204) at 4° C. for 16 to 20 hours. […] Next, the membranes were washed three times with TBST for 5 minutes each time and treated with a chemiluminescent substrate reagent, and the expression level of the protein was measured by detecting luminescence with an X-ray film in the dark.
The inhibitory activities of control compounds and PHI-101 against c-kit phosphorylation and downstream signaling (p-STAT5, p-AKT, p-ERK) in a mastocytosis cell line were measured, and as the control compounds, imatinib and sunitinib were used. […]

[4] = tested on: cleaved PARP and cleaved caspase-3 in HMC-1.2 cell line; test: Western blot of cleaved PARP and cleaved caspase-3, HMC-1.2; format: cell-based; conditions: HMC-1.2, 0.1 and 1 μM, controls 1 μM, FIG. 8
Description: as §1, with “membranes.” for “membranes. The membranes were blocked with 5% skim milk at room temperature for 30 minutes, and allowed to react with primary antibodies (diluted 1:5,000), including p-c-kit tyrosine 719 (Y719), p-STAT3 tyrosine 705 (Y705) and p-ERK1/2 threonine 202/tyrosine 204 (T202/Y204) at 4° C. for 16 to 20 hours.”
A mastocytosis cell line was treated with PHI-101, and the levels of cleaved PARP and cleaved caspase-3, which are apoptosis markers, were analyzed. […]
Specifically, the apoptotic effect of PHI-101 against the HMC-1.2 cell line was analyzed in the same manner as in Example 1-2, except that the HMC-1.2 cell line was treated with each of the control compounds at a concentration of 1 μM and PHI-101 at concentrations of 0.1 and 1 μM, and that cleaved PARP and cleaved caspase-3, each diluted at 1:5,000, were used as primary antibodies.

[5] = Body weight monitoring in mastocytosis mouse model; format: in vivo, NOD SCID female mice; conditions: 80 mg/kg oral once daily for 3 weeks
Description: Thereafter, when the average tumor volume reached 150 to 200 mm^3, 4 mice were assigned to each group so that the average tumor volume at each group and treatment time was the same between the groups. Then, each of imatinib at a dose of 90 mg/kg, sunitinib at doses of 20 and 40 mg/kg, and PHI-101 at doses of 7, 20, 40 and 80 mg/kg was administered orally to the mice once daily for 3 weeks. For oral administration, each compound was dissolved in 5% 1-methyl-2-pyrrolidone and then completely mixed in 15% Kolliphor, 30% PEG E400 HS15 and 50% 0.05M citric acid.
Specifically, while the presence or absence of abnormalities in the mastocytosis mouse model of Example 3-1 was monitored daily by checking the skin condition, bleeding and stool status, whether the body weight changed was checked by measuring the mouse body weight at intervals of 3 days after the start of oral administration of each drug. In addition, the width and length of the tumor were measured using a caliper at 3-day intervals, and the tumor volume was calculated using the following equation.

Compound: NC(=O)Nc1cc(C#Cc2cccc(F)c2)sc1C(=O)N[C@H]1CCCNC1 [PHI-101]
- selectivity for c-kit D816V Ba/F3 over parental Ba/F3 [1]: higher selectivity for the c-kit D816V Ba/F3 mutant cell line than for the parental Ba/F3 cell line
- apoptosis induction (Annexin V-PI FACS) [2]: strongly induced apoptosis even at a concentration of 0.1 μM
- downstream signaling inhibition ([3]; 0.1 μM): strongly inhibited downstream signaling
- c-kit phosphorylation and downstream signaling ([3]; 0.01, 0.1 and 1 μM): decreased c-kit phosphorylation and downstream signaling in a concentration-dependent manner
- levels of cleaved PARP and cleaved caspase-3 [4]: higher than those in the HMC-1.2 cell lines treated with the control compounds
- weight loss [5]: no weight loss
